For orientation: GI50 means the concentration at which growth is held to half of that of the control. A word on the TGI: it is the concentration at which net growth stops.

These results are taken from PubChem BioAssay (NCI).

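Five compound concentrations were applied to cells in 96-well plates for 48 hours; endpoints were derived by simple linear interpolation of the resulting dose-response curve. GI50 is the concentration that inhibits growth by half. TGI: concentration producing complete growth inhibition.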 A value given as a limit tells only on which side of the number the result lay.

Holding throughout (experiment): DTP human tumour cell line panel, 48 h
The subject of assay [1] is MOLT-4 leukemia.
Assay [2] concerns HT29 colon.
The subject of assay [3] is HL-60(TB) leukemia.
The test system of assay [4] is U251 CNS.
In assay [5] the test system is PC-3 prostate.
Assay [6] has as its system COLO 205 colon.
In assay [7] the test system is 786-0 renal.
In assay [8] the test system is CAKI-1 renal.
The subject of assay [9] is HCC-2998 colon.
The test system of assay [10] is SK-MEL-2 melanoma.

Regarding `C#CC#CC#CC#CC#CC#CC#CC#CCC1OC[C@H](COC(=O)O[C@@H](C(=O)O[C@H]2C[C@@]3(O)[C@@H](OC(=O)c4ccccc4)[C@@H]4[C@]5(OC(C)=O)CO[C@@H]5C[C@H](O)[C@@]4(C)C(=O)[C@H](OC(C)=O)C(=C2C)C3(C)C)[C@@H](NC(=O)c2ccccc2)c2ccccc2)O1` (stereo not given in full), the GI50 was 0.443 µM in [1]; 0.114 µM in assay [2]; 0.172 µM in assay [3]; 0.394 µM in [4]; 0.569 µM in [5]; 0.202 µM in assay [6]. The GI50 in assay [7] was 8.21 µM; in [8], 1.4 µM; in assay [9] it was 0.52 µM; in [10], 1.56 µM. In addition, the total growth inhibition concentration (TGI) in assay [1] is above 33.3 µM; in assay [2], above 33.3 µM; in assay [3], above 10.9 µM; in assay [4], above 33.3 µM; in [5] it was above 33.3 µM; in assay [6], above 33.3 µM. Also, the TGI in assay [7], in assay [8], in [9] and in assay [10] was above 33.3 µM in each case.

For the molecule `Cc1ccccc1NC(=O)c1sc2nc3c(cc2c1N)C(=O)CCC3`, the GI50 is 11.3 µM in [1]; 1.59 µM in assay [2]; 3.1 µM in [3]; 1.67 µM in assay [4]; 3.13 µM in assay [5]; 2.13 µM in [6]. The GI50 in assay [7] was 9.02 µM; in assay [8], 6.74 µM; in assay [9], 3.21 µM; in assay [10], 0.548 µM. For the same molecule, the TGI in [1] is above 100 µM; in [2], 23.7 µM; in assay [3] it was above 100 µM; in assay [4], 21.4 µM; in [5], above 100 µM; in [6], 6.69 µM. Besides, the TGI in [7], in [8], in assay [9] and in assay [10] was above 100 µM throughout.

On to `C=C1C(=O)O[C@H]2[C@H]1CC(=O)/C(C)=C\CC[C@@]1(C)O[C@@H]21`, for which the GI50 in [1] is 1.12 mg/L; in assay [2], 1.29 mg/L; in assay [3] it was 0.264 mg/L; in [4], 5.32 mg/L; in [5], 4.53 mg/L; in [6] it was 0.755 mg/L. The GI50 in assay [7] was 1.06 mg/L; in assay [8], 1.19 mg/L; in assay [9], 3.47 mg/L; in assay [10], 3.99 mg/L. Besides, the TGI came to 4.7 mg/L in assay [1]; 4.32 mg/L in assay [2]; 4.19 mg/L in [3]; 10.9 mg/L in [4]; 8.7 mg/L in assay [5]; 3.54 mg/L in assay [6]. For the same molecule, the TGI amounted to 4.51 mg/L in assay [7], 3.45 mg/L in [8], 7.4 mg/L in [9] and 8.47 mg/L in assay [10].

With `COC(=O)[C@H](Cc1ccccc1)NC(=O)[C@@H](OC)[C@@H]1Cc2cc3cc(OC4CC(OC5CC(O)C(O)C(C)O5)C(O)C(C)O4)c(C)c(O)c3c(O)c2C(=O)[C@H]1OC1CC(OC2CC(OC3CC(C)(O)C(O)C(C)O3)C(O)C(C)O2)C(O)C(C)O1` (stereo not given in full), the GI50 in [1] is 0.017 µM; in assay [2], 0.0268 µM; in [3] it was 0.0336 µM; in [4], 0.0257 µM; in assay [5], 0.0215 µM; in assay [6], 0.0182 µM. Also, the GI50 in assay [7] was 0.0188 µM; in assay [8], 0.0416 µM; in assay [9], 0.0158 µM; in assay [10] it was 0.0173 µM. Besides, the TGI was 0.161 µM in [1]; above 14.3 µM in [2]; 0.649 µM in assay [3]; above 14.3 µM in assay [4]; 0.429 µM in [5]; 0.0682 µM in assay [6]. The TGI in assay [7] is above 14.3 µM; in [8] it was above 14.3 µM; in assay [9], 0.0478 µM; in [10] it was 0.0707 µM.

Consider `CCCCc1nc2cc(/C=C/C(=O)NO)ccc2n1CCN(CC)CC`, for which the GI50 was 0.384 µM in assay [1]; 0.198 µM in assay [2]; 0.441 µM in assay [3]; 0.28 µM in assay [4]; 0.327 µM in assay [5]; 0.138 µM in [6]. Also, the GI50 in assay [7] was 0.46 µM; in [8], 0.237 µM; in assay [9], 0.242 µM; in assay [10], 0.153 µM. In addition, the TGI was above 88.8 µM in [1]; 0.762 µM in assay [2]; above 100 µM in assay [3]; 1.43 µM in assay [4]; 16.2 µM in assay [5]; 0.298 µM in assay [6]. Besides, the TGI in assay [7] was 11.5 µM; in assay [8] it was 0.943 µM; in [9] it was 1.23 µM; in assay [10], 0.506 µM.

`COc1ccc2sc3c(NCCCNCCO)nc4ccccc4c3c(=O)c2c1`: the GI50 in assay [1] was 1.93 µM; in [2], 1.57 µM; in [3] it was 1.98 µM; in assay [4] it was 1.6 µM; in assay [5] it was 1.58 µM; in [6], 1.66 µM. Moreover, the GI50 in assay [7] is 1.38 µM; in [8] it was 1.57 µM; in [9], 1.68 µM; in [10], 2.08 µM. Further, the TGI in assay [1] turned out to be 3.81 µM; in [2] it was 3.03 µM; in [3] it was 3.89 µM; in assay [4] it was 3.16 µM; in assay [5], 3.1 µM; in assay [6], 3.65 µM. The TGI in assay [7] is 2.82 µM; in assay [8] it was 2.99 µM; in assay [9], 3.29 µM; in assay [10], 4.07 µM.

As to `COC(=O)[C@]12CC[C@@H](C)[C@H](C)[C@@H]1C1=CC[C@@H]3[C@@]4(C)C=C(O)C(=O)C(C)=C4CC[C@@]3(C)[C@]1(C)CC2`, the GI50 in [1] is 4.71 µM; in assay [2], 9.35 µM; in assay [3] it was 13.7 µM; in [4], 16.9 µM; in assay [5], 4.16 µM; in [6] it was 12.5 µM. The GI50 was 16.4 µM in assay [7], 12.4 µM in assay [8], 8.6 µM in [9] and 14.6 µM in assay [10]. Besides, the TGI was 20.7 µM in assay [1]; 23 µM in [2]; 35.7 µM in assay [3]; 33.6 µM in assay [4]; 18.4 µM in [5]; 30.1 µM in assay [6]. The TGI is 32.6 µM in assay [7], 31.4 µM in assay [8], 23.3 µM in [9] and 31.6 µM in assay [10].

With `CN1CCN(c2cc(Nc3cc(C4CC4)[nH]n3)nc(Nc3ccc(CC(=O)NCc4cccc(F)c4)cc3)n2)CC1`, the GI50 in assay [1] was 0.248 µM; in [2], 0.379 µM; in assay [3], 0.713 µM; in assay [4], 0.978 µM; in [5], 0.616 µM; in assay [6], 0.0713 µM. For the same molecule, the GI50 in [7] was 0.934 µM; in [8], 0.823 µM; in [9], 1.15 µM; in [10] it was 1.99 µM. Moreover, the TGI in assay [1] stood at 19.8 µM; in assay [2] it was 11.6 µM; in assay [3], 3.06 µM; in assay [4] it was 5.24 µM; in assay [5], 22.8 µM; in assay [6], 0.607 µM. Further, the concentration for total growth inhibition (TGI) amounted to 4.04 µM in [7], 4.74 µM in assay [8], 12.1 µM in assay [9] and 9.32 µM in assay [10].

`O=C(CC(=O)c1ccccc1NC1=Cc2ccccc2C(=O)C1=O)C(=O)NC1=C(Cl)C(=O)c2ccccc2C1=O`: the TGI in [1] was determined as 18 µM; in assay [2] it was 26.1 µM; in [3], 3.42 µM; in [4], 12.5 µM; in assay [5] it was 6.69 µM; in [6], 31 µM. Also, the TGI in assay [7] is 10.7 µM; in assay [8], 24.1 µM; in assay [9], 26.8 µM; in assay [10] it was 6.6 µM.
